Legend:
Mus musculus [1] = experiment: Hypoglycemic activity in C57BL/6J mouse assessed as postprandial blood glucose level at 1 mg/kg measured after 30 mins by maltose tolerance test (reference value: 368.49 +/-31.28 mg/dl); assay type: functional; conditions: 0.5 h
[2] = Renal toxicity in C57BL/6J mouse assessed as blood urea level at 2 mg/kg administered for 7 days; assay type: organism-based; conditions: in vivo, 168 h, time 7 day
[3] = Toxicity in C57BL/6J mouse assessed as change in blood cholesterol level at 2 mg/kg administered for 7 days; assay type: organism-based; conditions: in vivo, 168 h, time 7 day
[4] = Toxicity in C57BL/6J mouse assessed as spleen pathological morphological changes at 2 mg/kg administered for 7 days by hematoxylin-eosin staining based analysis; assay type: organism-based; conditions: in vivo, 168 h, time 7 day
Mus musculus [5] = experiment: Hypoglycemic activity in C57BL/6J mouse assessed as reduction in postprandial blood glucose level per DNJ unit at 0.5 to 1 mg/kg measured after 30 mins by maltose tolerance test relative to Miglitol; assay type: functional; conditions: dose 0.5-1 mg/kg
[6] = Toxicity in C57BL/6J mouse assessed as change in CK level at 2 mg/kg administered for 7 days; assay type: organism-based; conditions: in vivo, 168 h, time 7 day
Mus musculus [7] = experiment: Hypoglycemic activity in C57BL/6J mouse assessed as reduction in postprandial blood glucose level at 1 mg/kg measured after 15 mins by maltose tolerance test; assay type: functional; conditions: 0.25 h
Mus musculus [8] = experiment: Hypoglycemic activity in C57BL/6J mouse assessed as reduction in postprandial blood glucose level at 0.5 mg/kg measured after 15 mins by maltose tolerance test; assay type: functional; conditions: 0.25 h
[9] = target: T1, Alpha-mannosidase (Canavalia ensiformis) (UniProt C0HJB3); experiment: Potency index, ratio of Miglitol Ki to test compound Ki for inhibition of jack bean alpha-mannosidase measured per DNJ unit
T1 sequence (whole entry): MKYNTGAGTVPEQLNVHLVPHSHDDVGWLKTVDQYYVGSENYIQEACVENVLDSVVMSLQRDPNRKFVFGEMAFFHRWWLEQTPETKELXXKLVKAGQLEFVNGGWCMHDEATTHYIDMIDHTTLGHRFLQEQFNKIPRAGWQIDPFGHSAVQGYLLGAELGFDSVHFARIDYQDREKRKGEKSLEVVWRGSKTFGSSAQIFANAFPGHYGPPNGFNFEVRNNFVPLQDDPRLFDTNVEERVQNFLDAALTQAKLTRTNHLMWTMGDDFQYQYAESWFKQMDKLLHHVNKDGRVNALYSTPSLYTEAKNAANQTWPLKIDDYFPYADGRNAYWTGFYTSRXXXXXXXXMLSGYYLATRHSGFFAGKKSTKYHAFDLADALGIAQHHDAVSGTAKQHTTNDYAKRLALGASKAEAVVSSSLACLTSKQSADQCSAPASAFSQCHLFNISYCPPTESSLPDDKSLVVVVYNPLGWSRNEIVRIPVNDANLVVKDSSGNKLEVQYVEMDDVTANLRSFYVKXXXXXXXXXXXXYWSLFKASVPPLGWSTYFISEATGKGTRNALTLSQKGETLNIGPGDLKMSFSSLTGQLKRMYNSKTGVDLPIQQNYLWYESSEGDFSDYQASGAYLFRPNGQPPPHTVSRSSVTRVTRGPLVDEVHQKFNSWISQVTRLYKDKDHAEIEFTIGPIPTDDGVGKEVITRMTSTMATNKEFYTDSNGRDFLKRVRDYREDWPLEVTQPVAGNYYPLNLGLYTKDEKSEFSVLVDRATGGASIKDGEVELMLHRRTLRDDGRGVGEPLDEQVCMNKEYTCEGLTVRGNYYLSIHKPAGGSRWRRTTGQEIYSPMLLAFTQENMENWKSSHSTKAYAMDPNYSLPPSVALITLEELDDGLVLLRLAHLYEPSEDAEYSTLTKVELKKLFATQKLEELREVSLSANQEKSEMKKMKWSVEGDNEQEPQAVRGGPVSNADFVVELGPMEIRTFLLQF

[10] = Cytotoxicity against human GES1 cells assessed as cell viability at 125 uM; assay type: toxicity, cell-based; conditions: read-out: Activity
[11] = Toxicity in C57BL/6J mouse assessed as reduction in blood LDL level at 2 mg/kg administered for 7 days; assay type: organism-based; conditions: in vivo, 168 h, time 7 day
[12] = Toxicity in C57BL/6J mouse assessed as hepatic pathological changes by measuring hepatocytes distributed radially around the central veins at 2 mg/kg administered for 7 days by hematoxylin-eosin staining based analysis; assay type: organism-based; conditions: in vivo, 168 h, time 7 day
Mus musculus [13] = experiment: Hypoglycemic activity in C57BL/6J mouse assessed as postprandial blood glucose level at 0.5 mg/kg measured after 30 mins by maltose tolerance test (reference value: 368.49 +/-31.28 mg/dl); assay type: functional
[14] = Toxicity in C57BL/6J mouse assessed as heart pathological morphological changes at 2 mg/kg administered for 7 days by hematoxylin-eosin staining based analysis; assay type: organism-based; conditions: in vivo, 168 h, time 7 day
Mus musculus [15] = experiment: Hypoglycemic activity in C57BL/6J mouse assessed as reduction in postprandial blood glucose level at 2 mg/kg measured after 30 mins by maltose tolerance test; assay type: functional; conditions: 0.5 h
Mus musculus [16] = experiment: Hypoglycemic activity in C57BL/6J mouse assessed as reduction in postprandial blood glucose level at 1 mg/kg measured after 30 mins by maltose tolerance test; assay type: functional; conditions: 0.5 h
Oryza sativa = experiment: Potency index, ratio of Miglitol Ki to test compound Ki for inhibition of rice alpha-glucosidase measured per DNJ unit
[17] = Toxicity in C57BL/6J mouse assessed as change in body weight at 2 mg/kg administered for 7 days; assay type: organism-based; conditions: in vivo, 168 h, time 7 day
[18] = Toxicity in C57BL/6J mouse assessed as change in blood triglyceride level at 2 mg/kg administered for 7 days; assay type: organism-based; conditions: in vivo, 168 h, time 7 day
[19] = Renal toxicity in C57BL/6J mouse assessed as blood uric acid level at 2 mg/kg administered for 7 days; assay type: organism-based; conditions: in vivo, 168 h, time 7 day
[20] = Toxicity in C57BL/6J mouse assessed as change in GLU level at 2 mg/kg administered for 7 days; assay type: organism-based; conditions: in vivo, 168 h, time 7 day
Alpha-mannosidase = target: T2, Alpha-mannosidase (Canavalia ensiformis, UniProt C0HJB3); experiment: Inhibition of jack bean alpha-mannosidase
T2 sequence (C0HJB3 whole entry): T1 sequence (whole entry)

[21] = Hepatotoxicity in C57BL/6J mouse assessed as serum AST level at 2 mg/kg administered for 7 days (reference value: 221.38 +/-23.03 U/L); assay type: toxicity, organism-based; conditions: in vivo, 168 h, time 7 day
Mus musculus [22] = experiment: Hypoglycemic activity in C57BL/6J mouse assessed as reduction in postprandial blood glucose level at 0.5 mg/kg measured after 30 mins by maltose tolerance test; assay type: functional; conditions: 0.5 h
[23] = Inhibition of Aspergillus niger alpha-glucosidase by Lineweaver-Burk plot analysis
[24] = Toxicity in C57BL/6J mouse assessed as kidneys pathological morphological changes at 2 mg/kg administered for 7 days by hematoxylin-eosin staining based analysis; assay type: organism-based; conditions: in vivo, 168 h, time 7 day
[25] = Inhibition of alpha-glucosidase in Kunming mouse using p-nitrophenyl-alpha-glycopyranoside as substrate by Lineweaver-Burk plot analysis
[26] = Toxicity in C57BL/6J mouse assessed as change in blood HDL level at 2 mg/kg administered for 7 days; assay type: organism-based; conditions: in vivo, 168 h, time 7 day
[27] = Inhibition of rice alpha-glucosidase by Lineweaver-Burk plot analysis; set-up: species or system Oryza sativa
[28] = Hepatotoxicity in C57BL/6J mouse assessed as serum ALT level at 2 mg/kg administered for 7 days (reference value: 70.49 +/-8.78 U/L); assay type: toxicity, organism-based; conditions: in vivo, 168 h, time 7 day
Mus musculus [29] = experiment: Hypoglycemic activity in C57BL/6J mouse assessed as reduction in postprandial blood glucose level per DNJ nit at 0.5 to 2 mg/kg measured after 15 mins by maltose tolerance test relative to Miglitol; assay type: functional; conditions: dose 0.5-2 mg/kg, 0.25 h
Mus musculus [30] = experiment: Hypoglycemic activity in C57BL/6J mouse assessed as reduction in postprandial blood glucose level at 2 mg/kg measured after 15 mins by maltose tolerance test; assay type: functional; conditions: 0.25 h
Mus musculus [31] = experiment: Hypoglycemic activity in C57BL/6J mouse assessed as postprandial blood glucose level at 2 mg/kg measured after 30 mins by maltose tolerance test (reference value: 368.49 +/-31.28 mg/dl); assay type: functional; conditions: 0.5 h
[32] = Toxicity in C57BL/6J mouse assessed as lungs pathological morphological changes at 2 mg/kg administered for 7 days by hematoxylin-eosin staining based analysis; assay type: organism-based; conditions: in vivo, 168 h, time 7 day
[33] = Hepatotoxicity in C57BL/6J mouse assessed as change in serum AST level at 2 mg/kg administered for 7 days; assay type: toxicity, organism-based; conditions: in vivo, 168 h, time 7 day
[34] = Hepatotoxicity in C57BL/6J mouse assessed as change in serum ALP level at 2 mg/kg administered for 7 days; assay type: toxicity, organism-based; conditions: in vivo, 168 h, time 7 day
[35] = Renal toxicity in C57BL/6J mouse assessed as change in blood urea level at 2 mg/kg administered for 7 days; assay type: organism-based; conditions: in vivo, 168 h, time 7 day
[36] = Renal toxicity in C57BL/6J mouse assessed as change in blood uric acid level at 2 mg/kg administered for 7 days; assay type: organism-based; conditions: in vivo, 168 h, time 7 day

| SMILES | Activity (Mus musculus [1]) [mg/dL] | Activity [3] | Activity [4] | fold change (FC) (Mus musculus [5]) | Activity [6] | inhibition in vivo at 1 mg/kg (Mus musculus [7]) [%] | inhibition in vivo at 0.5 mg/kg (Mus musculus [8]) [%] | Ratio Ki [9] | viability at 125 µM [10] [%] | Activity [11] [mmol/L] | Activity [12] | Activity (Mus musculus [13]) [mg/dL] | Activity [14] | inhibition in vivo at 2 mg/kg (Mus musculus [15]) [%] | inhibition in vivo at 1 mg/kg (Mus musculus [16]) [%] | inhibition in vivo at 0.5 mg/kg (Mus musculus [22]) [%] | Ki [23] [nM] | Ki [27] [nM] | inhibition in vivo at 2 mg/kg (Mus musculus [30]) [%] | Activity (Mus musculus [31]) [mg/dL] | further results |
| --- | --- | --- | --- | --- | --- | --- | --- | --- | --- | --- | --- | --- | --- | --- | --- | --- | --- | --- | --- | --- | --- |
| O=C1c2cc(Oc3ccc(OCc4cn(CCCN5C[C@H](O)[C@@H](O)[C@H](O)[C@H]5CO)nn4)cc3)c3c4c(Oc5ccc(OCc6cn(CCCN7C[C@H](O)[C@@H](O)[C@H](O)[C@H]7CO)nn6)cc5)cc5c6c(cc(Oc7ccc(OCc8cn(CCCN9C[C@H](O)[C@@H](O)[C@H](O)[C@H]9CO)nn8)cc7)c(c7c(Oc8ccc(OCc9cn(CCCN%10C[C@H](O)[C@@H](O)[C@H](O)[C@H]%10CO)nn9)cc8)cc(c2c37)C(=O)N1Cc1cn(CCCN2C[C@H](O)[C@@H](O)[C@H](O)[C@H]2CO)nn1)c64)C(=O)N(Cc1cn(CCCN2C[C@H](O)[C@@H](O)[C@H](O)[C@H]2CO)nn1)C5=O | 243.36 | Non-Toxic | Non-Toxic | 2.1 | Non-Toxic | 37 | 24.7 | 219 | 92 | 0.3 | Non-Toxic | 279.6 | Non-Toxic | 37.8 | 34.6 | 24.4 | 18900 | 20 | 40.4 | 229.32 | Activity [2]: 8.63 mmol/L; Ratio Ki (Oryza sativa): 1.5; Activity [17]: Non-Toxic; Activity [18]: Non-Toxic; Activity [19]: 242.06 µmol/L; Activity [20]: Non-Toxic; Ki (Alpha-mannosidase): 80 nM; Activity [21]: 269.71 U/L; Activity [24]: Non-Toxic; Ki [25]: 140 nM; Activity [26]: Non-Toxic; Activity [28]: 59.14 U/L; fold change (FC) (Mus musculus [29]): 2.1; Activity [32]: Non-Toxic |
| OCCN1C[C@H](O)[C@@H](O)[C@H](O)[C@H]1CO [MIGLITOL] | 273.6 |  |  |  |  | 30 | 23.1 |  |  |  |  | 287.55 |  | 41 | 27.3 | 22 | 20800 | 180 | 39.2 | 233.28 |  |
| O=C1c2cc(Cl)c3c4c(Oc5ccc(OCc6cn(CCCN7C[C@H](O)[C@@H](O)[C@H](O)[C@H]7CO)nn6)cc5)cc5c6c(cc(Oc7ccc(OCc8cn(CCCN9C[C@H](O)[C@@H](O)[C@H](O)[C@H]9CO)nn8)cc7)c(c7c(Oc8ccc(OCc9cn(CCCN%10C[C@H](O)[C@@H](O)[C@H](O)[C@H]%10CO)nn9)cc8)cc(c2c37)C(=O)N1Cc1cn(CCCN2C[C@H](O)[C@@H](O)[C@H](O)[C@H]2CO)nn1)c64)C(=O)N(Cc1cn(CCCN2C[C@H](O)[C@@H](O)[C@H](O)[C@H]2CO)nn1)C5=O | 304.2 | Non-Toxic | Non-Toxic | 1.5 | Non-Toxic | 26.9 | 18 | 175 | 92 | 0.24 | Non-Toxic | 323.49 | Non-Toxic |  | 23.8 | 12.3 | 8040 | 10 | 31.9 | 287.49 | Activity [33]: Non-Toxic; Activity [34]: Non-Toxic; Ratio Ki (Oryza sativa): 3.6; Activity [17]: Non-Toxic; Activity [35]: Non-Toxic; Activity [18]: Non-Toxic; Activity [20]: Non-Toxic; Ki (Alpha-mannosidase): 120 nM; Activity [36]: Non-Toxic; Activity [24]: Non-Toxic; Ki [25]: 310 nM; Activity [26]: Non-Toxic; fold change (FC) (Mus musculus [29]): 1.6; Activity [32]: Non-Toxic |

— ChEMBL document CHEMBL5108001, “Multivalent glucosidase inhibitors based on perylene bisimide and iminosugar conjugates” (Eur J Med Chem, 2022)
